Results published in ChEMBL document CHEMBL2401689, “Design, synthesis and antibacterial activity studies of thiazole derivatives as potent ecKAS III inhibitors” (Bioorg Med Chem Lett, 2013).
Values after ≈ are worked out from the molar mass of the structure shown.

Tests used:
[1] = Hemolytic activity in RBC (uinknown origin); format: cell-based; settings: erythrocyte
[2] = Displacement of [3H]acetyl-CoA from Escherichia coli full-length beta-ketoacyl-ACP synthase3 expressed in Escherichia coli BL21 (DE3) by liquid scintillation counting analysis
[3] = test system: Staphylococcus aureus; assay: Antibacterial activity against Staphylococcus aureus ATCC 6538 after 24 hrs by MTT assay; format: functional; settings: ATCC 6538, 24 h
[4] = test system: Bacillus spizizenii; assay: Antibacterial activity against Bacillus subtilis ATCC 6633 after 24 hrs by MTT assay; format: functional; settings: ATCC 6633, 24 h
[5] = test system: Pseudomonas aeruginosa; assay: Antibacterial activity against Pseudomonas aeruginosa ATCC 13525 after 24 hrs by MTT assay; format: functional; settings: ATCC 13525, 24 h
[6] = test system: Escherichia coli; assay: Antibacterial activity against Escherichia coli ATCC 35218 after 24 hrs by MTT assay; format: functional; settings: ATCC 35218, 24 h

SMILES	LC30 [1]	IC50 [2]	MIC [3]	MIC [4]	MIC [5]	MIC [6]
O=C(Cc1ccc(F)cc1)Nc1nc(-c2ccc(Br)cc2)cs1	> 10000 µg/mL	29.3 µM	12.5 µg/mL (≈ 31.9 µM)	6.25 µg/mL (≈ 16 µM)	12.5 µg/mL (≈ 31.9 µM)	12.5 µg/mL (≈ 31.9 µM)
O=C(Cc1cccc(Cl)c1)Nc1nc(-c2ccc(Br)cc2)cs1	> 10000 µg/mL	5.3 µM	3.13 µg/mL (≈ 7.68 µM)	6.25 µg/mL (≈ 15.3 µM)	3.13 µg/mL (≈ 7.68 µM)	1.56 µg/mL (≈ 3.83 µM)
O=C(Cc1cccc(Cl)c1)Nc1nc(-c2ccccc2)cs1	> 10000 µg/mL	12.3 µM	6.25 µg/mL (≈ 19 µM)	12.5 µg/mL (≈ 38 µM)	6.25 µg/mL (≈ 19 µM)	6.25 µg/mL (≈ 19 µM)
O=C(Cc1ccccc1)Nc1nc(-c2ccc(Br)cc2)cs1			25 µg/mL (≈ 67 µM)	25 µg/mL (≈ 67 µM)	50 µg/mL (≈ 134 µM)	50 µg/mL (≈ 134 µM)
O=C(Nc1nc(-c2ccccc2)cs1)c1ccc2ccccc2c1			> 100 µg/mL	50 µg/mL (≈ 151 µM)	> 100 µg/mL	> 100 µg/mL
CCOc1ccc(CC(=O)Nc2nc(-c3ccccc3)cs2)cc1OCC			> 100 µg/mL	> 100 µg/mL	50 µg/mL (≈ 131 µM)	50 µg/mL (≈ 131 µM)
CC1(C)S[C@@H]2[C@H](NC(=O)Cc3ccccc3)C(=O)N2[C@H]1C(=O)O [PENICILLIN G]			6.25 µg/mL (≈ 18.7 µM)	1.56 µg/mL (≈ 4.67 µM)	6.25 µg/mL (≈ 18.7 µM)	3.13 µg/mL (≈ 9.36 µM)
O=C(Cc1ccc(Cl)cc1)Nc1nc(-c2ccc(Br)cc2)cs1	> 10000 µg/mL	34.7 µM	12.5 µg/mL (≈ 30.7 µM)	12.5 µg/mL (≈ 30.7 µM)	25 µg/mL (≈ 61.3 µM)	12.5 µg/mL (≈ 30.7 µM)
O=C(Nc1nc(-c2ccc(Br)cc2)cs1)c1ccc2ccccc2c1			> 100 µg/mL	> 100 µg/mL	> 100 µg/mL	> 100 µg/mL
O=C(Cc1ccc(Br)cc1)Nc1nc(-c2ccccc2)cs1			50 µg/mL (≈ 134 µM)	25 µg/mL (≈ 67 µM)	50 µg/mL (≈ 134 µM)	50 µg/mL (≈ 134 µM)
O=C(Cc1ccc(F)cc1)Nc1nc(-c2ccccc2)cs1	> 10000 µg/mL	38.4 µM	12.5 µg/mL (≈ 40 µM)	12.5 µg/mL (≈ 40 µM)	25 µg/mL (≈ 80 µM)	12.5 µg/mL (≈ 40 µM)
O=C(Nc1nc(-c2ccccc2)cs1)c1cccc2ccccc12			> 100 µg/mL	> 100 µg/mL	> 100 µg/mL	> 100 µg/mL
O=C(Cc1cccc(Br)c1)Nc1nc(-c2ccc(Br)cc2)cs1	> 10000 µg/mL	9.8 µM	6.25 µg/mL (≈ 13.8 µM)	6.25 µg/mL (≈ 13.8 µM)	12.5 µg/mL (≈ 27.6 µM)	6.25 µg/mL (≈ 13.8 µM)
NC[C@H]1O[C@H](O[C@H]2[C@H](O)[C@@H](O[C@H]3O[C@H](CO)[C@@H](O)[C@H](N)[C@H]3O)[C@H](N)C[C@@H]2N)[C@H](N)[C@@H](O)[C@@H]1O [BEKANAMYCIN]			3.13 µg/mL (≈ 6.47 µM)	0.39 µg/mL (≈ 0.807 µM)	3.13 µg/mL (≈ 6.47 µM)	1.56 µg/mL (≈ 3.23 µM)
COc1cccc(CC(=O)Nc2nc(-c3ccc(Br)cc3)cs2)c1	> 10000 µg/mL	65.6 µM	50 µg/mL (≈ 124 µM)	25 µg/mL (≈ 62 µM)	50 µg/mL (≈ 124 µM)	25 µg/mL (≈ 62 µM)
O=C(Cc1cccc(Br)c1)Nc1nc(-c2ccccc2)cs1	> 10000 µg/mL	26.9 µM	3.13 µg/mL (≈ 8.39 µM)	6.25 µg/mL (≈ 16.7 µM)	12.5 µg/mL (≈ 33.5 µM)	12.5 µg/mL (≈ 33.5 µM)
O=C(Nc1nc(-c2ccc(Br)cc2)cs1)c1ccccc1			> 100 µg/mL	> 100 µg/mL	> 100 µg/mL	> 100 µg/mL
O=C(Cc1ccccc1)Nc1nc(-c2ccccc2)cs1			25 µg/mL (≈ 84.9 µM)	50 µg/mL (≈ 170 µM)	100 µg/mL (≈ 340 µM)	100 µg/mL (≈ 340 µM)
COc1cccc(CC(=O)Nc2nc(-c3ccccc3)cs2)c1			50 µg/mL (≈ 154 µM)	100 µg/mL (≈ 308 µM)	50 µg/mL (≈ 154 µM)	50 µg/mL (≈ 154 µM)
O=C(Nc1nc(-c2ccccc2)cs1)c1ccccc1			> 100 µg/mL	> 100 µg/mL	> 100 µg/mL	> 100 µg/mL
O=C(Cc1ccc(Br)cc1)Nc1nc(-c2ccc(Br)cc2)cs1	> 10000 µg/mL	48.1 µM	25 µg/mL (≈ 55.3 µM)	25 µg/mL (≈ 55.3 µM)	50 µg/mL (≈ 111 µM)	25 µg/mL (≈ 55.3 µM)
O=C(Nc1nc(-c2ccccc2)cs1)N1CCOCC1			> 100 µg/mL	> 100 µg/mL	> 100 µg/mL	> 100 µg/mL
O=C(Cc1ccc(Cl)cc1)Nc1nc(-c2ccccc2)cs1	> 10000 µg/mL	41.8 µM	25 µg/mL (≈ 76 µM)	12.5 µg/mL (≈ 38 µM)	25 µg/mL (≈ 76 µM)	25 µg/mL (≈ 76 µM)
CCOc1ccc(CC(=O)Nc2nc(-c3ccc(Br)cc3)cs2)cc1OCC			> 100 µg/mL	50 µg/mL (≈ 108 µM)	25 µg/mL (≈ 54.2 µM)	50 µg/mL (≈ 108 µM)
O=C(Nc1nc(-c2ccc(Br)cc2)cs1)N1CCOCC1			> 100 µg/mL	100 µg/mL (≈ 272 µM)	> 100 µg/mL	50 µg/mL (≈ 136 µM)
O=C(Nc1nc(-c2ccc(Br)cc2)cs1)c1cccc2ccccc12			> 100 µg/mL	> 100 µg/mL	100 µg/mL (≈ 244 µM)	50 µg/mL (≈ 122 µM)
